Experimental data as given in US8012471B2, “Screening and treatment methods using IGS5 enzymes of the metalloprotease family” (Abbott Healthcare Products B.V., priority 1999, dated 2011).
Entries after “also recorded” stand apart in the source; their conditions may differ. Marks after values point to notes of the source that are not given here. Starred links: 1 amine or outer side, 2 acyl side, 3 side chain; linkers in the order of their positions; H or OH if unused. Non-standard residues stand in square brackets, D forms with d. No end group written: not given here. *: point of attachment. Dpa = quench label, O=C([C@H](CNc1ccc([N+](=O)[O-])cc1[N+](=O)[O-])N[*:1])[*:2]; Mca = COc1ccc2c(CC(=O)*)cc(=O)oc2c1

Assays:
[1] = molecular target: T1, SEP (soluble secreted endopeptidase) (Mus musculus, UniProt Q9JLI3); details: 100 μl assay volume; 10 μg partially purified SEP; 0.5 μM substrate; 12 h, 37° C.; cited from earlier work
T1 sequence (Q9JLI3 1-765): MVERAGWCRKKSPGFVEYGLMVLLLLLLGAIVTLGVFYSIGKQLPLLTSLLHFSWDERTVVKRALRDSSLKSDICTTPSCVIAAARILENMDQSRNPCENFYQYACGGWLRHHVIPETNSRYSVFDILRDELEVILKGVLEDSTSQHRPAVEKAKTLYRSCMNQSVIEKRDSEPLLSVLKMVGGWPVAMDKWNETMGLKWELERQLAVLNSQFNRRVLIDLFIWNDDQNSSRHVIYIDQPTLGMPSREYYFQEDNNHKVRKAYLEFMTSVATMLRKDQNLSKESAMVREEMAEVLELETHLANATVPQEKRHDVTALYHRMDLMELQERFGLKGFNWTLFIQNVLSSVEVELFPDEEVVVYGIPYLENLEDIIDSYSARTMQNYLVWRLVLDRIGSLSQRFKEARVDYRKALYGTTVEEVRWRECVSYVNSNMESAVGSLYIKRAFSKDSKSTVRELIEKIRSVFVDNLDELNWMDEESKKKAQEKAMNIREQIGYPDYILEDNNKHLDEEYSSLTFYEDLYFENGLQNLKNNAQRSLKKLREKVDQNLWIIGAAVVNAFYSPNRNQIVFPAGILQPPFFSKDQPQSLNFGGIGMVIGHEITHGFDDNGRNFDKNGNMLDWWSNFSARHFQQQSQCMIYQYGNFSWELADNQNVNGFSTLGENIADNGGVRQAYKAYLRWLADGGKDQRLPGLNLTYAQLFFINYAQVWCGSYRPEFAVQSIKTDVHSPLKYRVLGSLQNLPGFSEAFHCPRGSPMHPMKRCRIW

[2] = molecular target: T2, IGS5 polypeptide (His6-tagged IGS5 ectodomain) (Homo sapiens, UniProt Q495T6, V306M); experiment: Hydrolysis of vasoactive peptides and PACAP(1-27) by IGS5 polypeptide (HPLC); assay type: biochemical; details: for % Hydrolysis by IGS5 Polypeptide: 0.5 μM substrate, 2 h, 37° C.
T2 construct: made in house; host or cells: Spodoptera frugiperda Sf9 (baculovirus IGBV73)
T2 sequence (Q495T6 with tags, fused parts or gaps V306M): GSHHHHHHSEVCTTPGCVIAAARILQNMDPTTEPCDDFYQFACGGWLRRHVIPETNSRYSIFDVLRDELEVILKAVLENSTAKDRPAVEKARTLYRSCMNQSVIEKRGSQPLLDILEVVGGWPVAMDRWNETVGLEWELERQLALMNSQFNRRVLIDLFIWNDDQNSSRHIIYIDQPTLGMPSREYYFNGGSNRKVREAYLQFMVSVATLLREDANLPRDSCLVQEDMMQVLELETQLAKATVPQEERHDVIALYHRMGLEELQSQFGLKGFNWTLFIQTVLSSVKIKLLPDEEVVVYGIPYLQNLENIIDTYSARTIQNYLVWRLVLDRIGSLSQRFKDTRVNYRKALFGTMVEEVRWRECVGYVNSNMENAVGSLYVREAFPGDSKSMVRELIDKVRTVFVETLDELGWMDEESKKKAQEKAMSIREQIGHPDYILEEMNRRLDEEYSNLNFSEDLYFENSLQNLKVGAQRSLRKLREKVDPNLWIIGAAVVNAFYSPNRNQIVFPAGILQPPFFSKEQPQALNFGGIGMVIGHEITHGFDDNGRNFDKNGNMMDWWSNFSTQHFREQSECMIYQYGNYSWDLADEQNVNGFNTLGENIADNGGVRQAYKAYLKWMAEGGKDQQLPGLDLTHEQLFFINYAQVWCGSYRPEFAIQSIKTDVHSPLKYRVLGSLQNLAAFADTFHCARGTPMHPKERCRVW
Procedure: (§1) The enzymatic activity of IGS5 polypeptides of the invention was tested with regard to the metabolism of biologically active peptides. In particular it was tested whether these IGS5 polypeptides may act on a variety of vasoactive peptides known in the state of the art e.g. such like atrial natriuretic peptide (ANP), bradykinin, big endothelin (Big ET-1), endothelin (ET-1), substance P and angiotensin-1. In the context of the present invention in particular it was tested whether the IGS5 ectodomain, which is a novel human metalloprotease, hydrolyzes said vasoactive peptides. For comparison the assay was also performed for a known member of the metalloprotease family which was described earlier as soluble secreted endopeptidase (SEP) by Ikeda, Emoto et al. (J. Biol. Chem., Vol. 274 (1999): pp. 32469-32477). Furthermore, it was tested whether the activity of IGS5 to convert a Big-ET-1 analogue (the so-called 17 aa Big-ET) may be inhibited by reference compounds that are used to determine the inhibition properties with regard to enzymes having ECE and/or NEP-characteristics. […] It was then checked whether the activity of IGS5 to convert PACAP(1-27) may be inhibited by a compound known to be a IGS5 inhibitor. The compound used to test the inhibition of IGS5-activity on PACAP(1-27) was the active metabolite of (3S,2′R)-3-{1-[2′-(ethoxycarbonyl)-4′-phenylbutyl]-cyclopentane-1-carbonylamino}-2,3,4,5-tetrahydro-2-oxo-1H-1-benzazepine-1-acetic acid (compound Ia-2 from WO 02/094176).
The enzymatic reaction was subsequently terminated by heating to 95° C. for 5 min. After centrifugation (Heraeus Biofuge B, 3 min) the supernatant was subjected to HPLC
(§2) In order to separate the remaining substrate from the cleavage products reversed phase HPLC technique was used with a CC 125/4 Nucleosil 300/5 C18 RP column and a CC 8/4 Nucleosil 100/5 C18 precolumn (commercially available from Macherey-Nagel, Duren, Germany). Thus, 60 μl of the reaction samples obtained in Example 7B were injected into the HPLC, and the column was eluted at a flow rate of 1 ml/min by applying the following gradient and solutions: […]
(§3) Peptides were detected by absorbance at 214 nm (UV spectroscopy) and/or by fluorescence with an excitation wavelength of 328 nm and an emission wavelength of 393 nm.
% Hydrolysis: For detection of substrate cleavage, the percentage of hydrolysis was calculated by directly comparing the substance peak areas in HPLC traces of the sample without addition of any IGS5 enzyme activity (blank) and of the samples with addition of IGS5 enzyme (sample). % hydrolysis was calculated on basis of the respective peak areas. % hydrolysis=100*(1−(Asample/Ablank))

[3] = molecular target: T2, IGS5 polypeptide (His6-tagged IGS5 ectodomain); experiment: Enzyme inhibition assay: IGS5 conversion of the Big-ET-1 analogue 17 aa Big-ET (HPLC); assay type: biochemical; details: for Inhibition of IGS5 (result in words): conversion of Big-ET-1 analogue 17 aa Big-ET; for IC50: substrate 17 aa Big-ET, 60 min, 37° C., read-out: Inhibition of IGS5 polypeptide's activity to convert the Big-ET-1 analogue 17 aa Big-ET, IC50
Procedure: as §1
All test compounds were dissolved in DMSO at 10 mM and were further diluted with assay buffer.
A quantity of 70 μl, of the assay buffer, of 10 μl enzyme working solution (10 μg/ml) and of 10 μl test compound solution were mixed in an Eppendorf vial and preincubated at 37° C. for 15 minutes. Then, 10 μl substrate stock solution was added and the reaction mixture was incubated at 37° C. for 60 minutes to allow for enzymatic hydrolysis. Subsequently the enzymatic reaction was terminated by heating at 95° C. for 5 minutes. After centrifugation (Heraeus Biofuge B, 3 min) the supernatant was subjected to HPLC analysis.
as §2, §3
% Inhibition: The increasing fluorescence signal of the HPLC-peak of the peptide with the unquenched Mca-fluorophor after hydrolysis was taken as the basis for any calculation. This signal was compared for the samples with and without inhibitor and % inhibition was calculated on basis of the respective peak areas. If non labeled peptide substrates were used, basis of the calculation of % inhibition was the peak area of the remaining undegraded peptide substrate for an inhibitory test compound containing sample (inhib) in comparison to samples containing only peptide without addition of any IGS5 enzyme activity (blank) and to samples containing peptide and enzyme without inhibitor (control) according to the following equation % inhib=100*((Ainhib−Acontrol)/(Ablank−Acontrol)) All samples were run in duplicate and mean values were used. A standard inhibitor (10 nM and 100 nM Phosphoramidon) and/or a solvent control (0.1%) was added to each assay run.

[4] = 100 μl assay volume, 100 ng IGS5 polypeptide

| Molecule | % Hydrolysis by SEP (Ikeda, Emoto et al., 1999) [1] [%] | % Hydrolysis by IGS5 Polypeptide [2, 4] | Hydrolysis by IGS5 in vitro (result in words) [2] | Inhibition of IGS5 (result in words) [3] | IC50 [3] [nM] | also measured |
| --- | --- | --- | --- | --- | --- | --- |
| CC[C@H](C)[C@@H]1NC(=O)[C@H](CCCNC(=N)N)NC(=O)[C@H](CC(=O)O)NC(=O)[C@H](CCSC)NC(=O)[C@H](CCCNC(=N)N)NC(=O)CNC(=O)CNC(=O)[C@H](Cc2ccccc2)NC(=O)[C@@H](NC(=O)[C@H](CO)NC(=O)[C@H](CO)NC(=O)[C@H](CCCNC(=N)N)NC(=O)[C@H](CCCNC(=N)N)NC(=O)[C@H](CC(C)C)NC(=O)[C@@H](N)CO)CSSC[C@@H](C(=O)N[C@@H](CC(N)=O)C(=O)N[C@@H](CO)C(=O)N[C@@H](Cc2ccccc2)C(=O)N[C@@H](CCCNC(=N)N)C(=O)N[C@@H](Cc2ccc(O)cc2)C(=O)O)NC(=O)CNC(=O)[C@H](CC(C)C)NC(=O)CNC(=O)[C@H](CO)NC(=O)[C@H](CCC(N)=O)NC(=O)[C@H](C)NC(=O)CNC1=O [ANP, atrial natriuretic peptide] | >95 | 5% | hydrolyze | – | – | % Hydrolysis by IGS5 Polypeptide ([2]; 500 ng IGS5 polypeptide): 80% |
| O=C(O)C(Cc1ccc2c(c1)oc1ccccc12)NCP(=O)(O)O (centres unmarked) [CGS-35066] | – | – | – | not inhibited; also recorded: no inhibition | 1300 | – |
| CC[C@H](C)[C@H](NC(=O)[C@H](CC(=O)O)NC(=O)[C@H](CC(C)C)NC(=O)[C@H](Cc1c[nH]cn1)NC(=O)[C@@H]1CSSC[C@H](N)C(=O)N[C@@H](CO)C(=O)N[C@H]2CSSC[C@H](NC(=O)[C@H](CCC(=O)O)NC(=O)[C@H](CCCCN)NC(=O)[C@H](CC(=O)O)NC(=O)[C@H](CCSC)NC(=O)[C@H](CC(C)C)NC(=O)[C@H](CO)NC(=O)[C@H](CO)NC2=O)C(=O)N[C@@H](C(C)C)C(=O)N[C@@H](Cc2ccc(O)cc2)C(=O)N[C@@H](Cc2ccccc2)C(=O)N1)C(=O)N[C@H](C(=O)N[C@@H](Cc1c[nH]c2ccccc12)C(=O)O)[C@@H](C)CC [ET-1, endothelin] | 92 | <30% | hydrolyze | – | – | – |
| CC(C)C[C@H](NP(=O)(O)O[C@@H]1O[C@@H](C)[C@H](O)[C@@H](O)[C@H]1O)C(=O)N[C@@H](Cc1c[nH]c2ccccc12)C(=O)O [Phosphoramidon] | – | – | – | inhibited; also recorded: inhibition | 18 | – |
| O=C(O)CNC(=O)C(CS)Cc1ccccc1 (centres unmarked) [Thiorphan] | – | – | – | not efficiently inhibited; also recorded: no inhibition | > 1000 | – |
| Mca-Asp-Ile-Ala-Trp-Phe-Dpa-Thr-Pro-Glu-His-Val-Val-Pro-Tyr-Gly-Leu-Gly-COOH (Mca-DIAWF[Dpa]TPEHVVPYGLG-OH; SMILES CC[C@H](C)[C@H](NC(=O)[C@H](CC(=O)O)NC(=O)Cc1cc(=O)oc2cc(OC)ccc12)C(=O)N[C@@H](C)C(=O)N[C@@H](Cc1c[nH]c2ccccc12)C(=O)N[C@@H](Cc1ccccc1)C(=O)N[C@@H](CNc1ccc([N+](=O)[O-])cc1[N+](=O)[O-])C(=O)N[C@H](C(=O)N1CCC[C@H]1C(=O)N[C@@H](CCC(=O)O)C(=O)N[C@@H](Cc1c[nH]cn1)C(=O)N[C@H](C(=O)N[C@H](C(=O)N1CCC[C@H]1C(=O)N[C@@H](Cc1ccc(O)cc1)C(=O)NCC(=O)N[C@@H](CC(C)C)C(=O)NCC(=O)O)C(C)C)C(C)C)[C@@H](C)O) [17 aa Big ET 1] | – | 41% | – | – | – | – |
| RPPGFSPFR [Bradykinin, bradykinin] | – | 100% | – | – | – | % Hydrolysis by IGS5 Polypeptide ([2]; 10 ng IGS5 polypeptide): 62% |
| angiotensin-1 (DRVYIHPFHL) [Angiotensin 1] | >95 | 15*** % | – | – | – | Formation of angiotensin II on degradation by IGS5 [2]: ***degradation of angiotensin I does not result in formation of angiotensin II |
| big endothelin (CSCSSLMDKECVYFCHLDIIWVNTPEHVVPYGLGSPRS) [Big ET-1] | 42 | – | hydrolyze | – | – | – |
| substance P | >95 | 100% | – | – | – | – |
